Measured values: the NIST ThermoML archive (doi:10.1016/j.fluid.2005.08.011)

Settings: Gas, isochoric method

CCF [fluoroethane]
Settings | mass density [kg/m3]
300.16 K, 642.2 kPa | 13.92
305.16 K, 656.6 kPa | 13.917
310.14 K, 670.4 kPa | 13.913
312.16 K, 1205.6 kPa | 27.61
314.16 K, 1218.3 kPa | 27.607
315.15 K, 684.8 kPa | 13.91
316.15 K, 1231.8 kPa | 27.605
318.15 K, 1244.1 kPa | 27.602
320.14 K, 698.5 kPa | 13.906
322.16 K, 1268.7 kPa | 27.596
324.15 K, 1614.6 kPa | 37.54
325.14 K, 712.3 kPa | 13.903
326.14 K, 1634.4 kPa | 37.536
326.16 K, 1293.4 kPa | 27.591
328.15 K, 1652.5 kPa | 37.533
330.15 K, 1670.2 kPa | 37.529
330.16 K, 726.1 kPa | 13.899
330.16 K, 1317.6 kPa | 27.585
332.15 K, 2022.6 kPa | 48.84
334.16 K, 1341.9 kPa | 27.58
334.16 K, 1704.9 kPa | 37.521
334.16 K, 2047.7 kPa | 48.835
335.15 K, 739.5 kPa | 13.896
336.16 K, 2072.5 kPa | 48.83
338.12 K, 2287.8 kPa | 56.23
338.16 K, 1739 kPa | 37.514
338.17 K, 1365.6 kPa | 27.574
338.2 K, 2096.6 kPa | 48.825
339.16 K, 2108.2 kPa | 48.823
340.12 K, 2318.8 kPa | 56.224
340.15 K, 752.5 kPa | 13.892
340.15 K, 2419 kPa | 60.32
340.16 K, 2120.6 kPa | 48.821
342.12 K, 2347.8 kPa | 56.219
342.16 K, 1388.9 kPa | 27.569
342.16 K, 2144.2 kPa | 48.816
342.16 K, 2450.7 kPa | 60.314
342.17 K, 1773.5 kPa | 37.506
344.12 K, 2376.7 kPa | 56.213
344.16 K, 2167.5 kPa | 48.811
344.16 K, 2482.2 kPa | 60.308
346.12 K, 2404.5 kPa | 56.208
346.14 K, 2707.5 kPa | 68.66
346.15 K, 768.9 kPa | 13.888
346.15 K, 1412.4 kPa | 27.563
346.15 K, 2513.1 kPa | 60.302
346.16 K, 1806.7 kPa | 37.499
346.16 K, 2190.7 kPa | 48.806
347.15 K, 2725.9 kPa | 68.657
348.13 K, 2432.7 kPa | 56.202
348.15 K, 2743.8 kPa | 68.653
348.16 K, 2214 kPa | 48.801
348.16 K, 2543 kPa | 60.296
350.15 K, 1435.8 kPa | 27.558
350.15 K, 2460.5 kPa | 56.196
350.15 K, 2779.8 kPa | 68.646
350.16 K, 1840.5 kPa | 37.491
350.16 K, 2237.2 kPa | 48.796
350.16 K, 2573.4 kPa | 60.29
350.16 K, 2978.2 kPa | 78.21
351.16 K, 2999.9 kPa | 78.206
352.15 K, 2488.2 kPa | 56.191
352.15 K, 2815 kPa | 68.639
352.16 K, 2260.1 kPa | 48.791
352.16 K, 2603.3 kPa | 60.284
352.17 K, 3021.2 kPa | 78.202
353.14 K, 3180.2 kPa | 85.66
353.16 K, 3042.3 kPa | 78.198
354.15 K, 3204.5 kPa | 85.656
354.16 K, 790.7 kPa | 13.883
354.16 K, 1458.8 kPa | 27.552
354.16 K, 1873.7 kPa | 37.484
354.16 K, 2283 kPa | 48.787
354.16 K, 2515.3 kPa | 56.185
354.16 K, 2633.4 kPa | 60.278
354.16 K, 2850.7 kPa | 68.633
354.17 K, 3062.9 kPa | 78.194
355.15 K, 3227.8 kPa | 85.651
356.14 K, 2542.3 kPa | 56.18
356.15 K, 2663.1 kPa | 60.272
356.15 K, 2885.7 kPa | 68.626
356.16 K, 2305.7 kPa | 48.782
356.16 K, 3104.4 kPa | 78.187
356.26 K, 3251.2 kPa | 85.647
357.26 K, 3274.8 kPa | 85.642
358.15 K, 1481.8 kPa | 27.547
358.15 K, 1906.7 kPa | 37.477
358.15 K, 2569.2 kPa | 56.174
358.15 K, 2920 kPa | 68.619
358.15 K, 3297.7 kPa | 85.639
358.16 K, 2328.4 kPa | 48.777
358.16 K, 2692.5 kPa | 60.266
358.16 K, 3145.7 kPa | 78.179
358.16 K, 3506.4 kPa | 97.915
359.16 K, 3534.2 kPa | 97.91
360.15 K, 2595.9 kPa | 56.168
360.15 K, 2954.3 kPa | 68.612
360.16 K, 2721.3 kPa | 60.26
360.16 K, 3186 kPa | 78.171
360.16 K, 3343.9 kPa | 85.63
360.16 K, 3562.2 kPa | 97.905
360.17 K, 2350.8 kPa | 48.772
360.17 K, 3660.7 kPa | 104.59
361.15 K, 3589.9 kPa | 97.9
361.16 K, 3691 kPa | 104.585
362.14 K, 2622.7 kPa | 56.163
362.15 K, 811.8 kPa | 13.877
362.15 K, 2988.3 kPa | 68.605
362.15 K, 3226.2 kPa | 78.163
362.15 K, 3389.2 kPa | 85.622
362.15 K, 3617 kPa | 97.896
362.16 K, 1505 kPa | 27.541
362.16 K, 1939.6 kPa | 37.469
362.16 K, 3721.4 kPa | 104.58
362.17 K, 2373 kPa | 48.767
362.17 K, 2750.9 kPa | 60.254
363.15 K, 3644.5 kPa | 97.891
363.16 K, 3751.4 kPa | 104.574
364.15 K, 2649.2 kPa | 56.157
364.15 K, 3023 kPa | 68.598
364.15 K, 3434.4 kPa | 85.613
364.15 K, 3780.8 kPa | 104.569
364.16 K, 2394.9 kPa | 48.762
364.16 K, 3266.5 kPa | 78.156
364.16 K, 3671.6 kPa | 97.886
364.17 K, 2779.6 kPa | 60.248
365.16 K, 3698.9 kPa | 97.881
365.16 K, 3810.4 kPa | 104.564
366.14 K, 1527.7 kPa | 27.536
366.14 K, 2675.7 kPa | 56.152
366.15 K, 1971.5 kPa | 37.462
366.15 K, 3056.7 kPa | 68.592
366.15 K, 3306.2 kPa | 78.148
366.15 K, 3478.5 kPa | 85.605
366.15 K, 3725.2 kPa | 97.876
366.15 K, 3839.8 kPa | 104.559
366.16 K, 2417.4 kPa | 48.757
366.16 K, 2808.4 kPa | 60.242
367.15 K, 3751.8 kPa | 97.871
367.15 K, 3869 kPa | 104.554
368.14 K, 2702 kPa | 56.146
368.14 K, 3090.7 kPa | 68.585
368.15 K, 3346 kPa | 78.14
368.15 K, 3523.3 kPa | 85.596
368.15 K, 3898.1 kPa | 104.548
368.16 K, 2439.4 kPa | 48.753
368.16 K, 2837.3 kPa | 60.236
368.16 K, 3778.8 kPa | 97.866
369.14 K, 3805.1 kPa | 97.861
369.15 K, 3927.3 kPa | 104.543
370.12 K, 1550.1 kPa | 27.531
370.13 K, 3123.8 kPa | 68.578
370.14 K, 2728 kPa | 56.14
370.14 K, 3568 kPa | 85.588
370.14 K, 3831.8 kPa | 97.857
370.15 K, 833.2 kPa | 13.872
370.15 K, 2461.8 kPa | 48.748
370.15 K, 3385.9 kPa | 78.132
370.15 K, 3956.2 kPa | 104.538
370.16 K, 2004 kPa | 37.454
370.16 K, 2865.8 kPa | 60.23
